Test results published in ChEMBL document CHEMBL4483862, “Open-source discovery of chemical leads for next-generation chemoprotective antimalarials” (2018).

Tested on: Plasmodium berghei
Assay: Luciferase/luciferin-expressing antifolate-resistant parasites were used to infect a culture of HepG2 cells that were pre-incubated with compounds. Infected hepatocytes emit light due to the luciferase reaction. Assay results are presented as the percent inhibition of light emission compared to control. […]
Format: functional
Details: sporozoite; for IC90: read-out: LUCIFERASE INFECTION ASSAY - IC90

O=c1c(Br)c(Br)cnn1-c1ccccc1
IC50 (HEPG2TOX_HILL_SLOPE 14.1, HEPG2TOX_R_SQUARED 0.656, PBLUC_HILL_SLOPE 2.79, PBLUC_R_SQUARED 0.266, read-out: LUCIFERASE INFECTION ASSAY - IC50): 6.1 µM
IC90: > 10 µM

O=C(Nc1ccc(Cl)cc1)Nc1csc([N+](=O)[O-])c1
IC50 (HEPG2TOX_HILL_SLOPE 14.4, HEPG2TOX_R_SQUARED 0.942, PBLUC_HILL_SLOPE 1.2, PBLUC_R_SQUARED 0.682, read-out: LUCIFERASE INFECTION ASSAY - IC50): 1.62 µM
IC90: 10 µM

O=C(Nc1ccc(F)cc1F)c1cc(Cl)ccc1O
IC50 (HEPG2TOX_HILL_SLOPE 14.4, HEPG2TOX_R_SQUARED 0.715, PBLUC_HILL_SLOPE 17.6, PBLUC_R_SQUARED 0.0303, read-out: LUCIFERASE INFECTION ASSAY - IC50): 3.86 µM
IC90: 4.37 µM

COc1ccc(Oc2ccc(/C=C/C(=O)c3ccc(N4CCN(C)CC4)cc3)cc2[N+](=O)[O-])cc1
IC50 (HEPG2TOX_HILL_SLOPE 14.7, HEPG2TOX_R_SQUARED 0.729, PBLUC_HILL_SLOPE 20.7, PBLUC_R_SQUARED 0.331, read-out: LUCIFERASE INFECTION ASSAY - IC50): 3.9 µM
IC90: 4.34 µM

Cc1nc(-c2ccc(CCNC(=O)c3ccc(S(C)(=O)=O)c([N+](=O)[O-])c3)cc2)cs1
IC50 (HEPG2TOX_HILL_SLOPE 14.7, HEPG2TOX_R_SQUARED 0.837, PBLUC_HILL_SLOPE 381, PBLUC_R_SQUARED 0.298, read-out: LUCIFERASE INFECTION ASSAY - IC50): 5.43 µM
IC90: 5.46 µM

CCC(C)(C)NS(=O)(=O)c1ccc(-n2ncc(Cl)c(Cl)c2=O)cc1
IC50 (HEPG2TOX_HILL_SLOPE 13.4, HEPG2TOX_R_SQUARED 0.912, PBLUC_HILL_SLOPE 13.3, PBLUC_R_SQUARED 0.601, read-out: LUCIFERASE INFECTION ASSAY - IC50): 1.23 µM
IC90: 1.45 µM

O=C(Nc1ncc(Cc2ccc(F)c(F)c2)s1)c1ccc2nc[nH]c2c1
IC50 (HEPG2TOX_HILL_SLOPE 13.7, HEPG2TOX_R_SQUARED 0.959, PBLUC_HILL_SLOPE 2.28, PBLUC_R_SQUARED 0.72, read-out: LUCIFERASE INFECTION ASSAY - IC50): 4.35 µM
IC90: > 10 µM

O=C(/C=C/c1ccc(F)cc1)Nc1cc([N+](=O)[O-])c(F)cc1F
IC50 (HEPG2TOX_HILL_SLOPE 14.4, HEPG2TOX_R_SQUARED 0.364, PBLUC_HILL_SLOPE 4.24, PBLUC_R_SQUARED 0.457, read-out: LUCIFERASE INFECTION ASSAY - IC50): 8.62 µM
IC90: > 10 µM

O=C1Cn2c(c(-c3nc4ccccc4[nH]3)c(=O)c3ccccc32)N1
IC50 (HEPG2TOX_HILL_SLOPE 13.7, HEPG2TOX_R_SQUARED 0.894, PBLUC_HILL_SLOPE 11.3, PBLUC_R_SQUARED 0.46, read-out: LUCIFERASE INFECTION ASSAY - IC50): 7.72 µM
IC90: 9.39 µM

O=c1c(C(F)(F)F)cccn1Cc1csc(COc2ccc(Cl)cc2)n1
IC50 (HEPG2TOX_HILL_SLOPE 13.6, HEPG2TOX_R_SQUARED 0.877, PBLUC_HILL_SLOPE 2.65, PBLUC_R_SQUARED 0.537, read-out: LUCIFERASE INFECTION ASSAY - IC50): 7.31 µM
IC90: > 10 µM

CCNC(=O)NC(=O)C(C)OC(=O)c1c(C)c(CC)nc2ccccc12 (configuration not stated)
IC50 (HEPG2TOX_HILL_SLOPE 14.2, HEPG2TOX_R_SQUARED 0.666, PBLUC_HILL_SLOPE 0.849, PBLUC_R_SQUARED 0.474, read-out: LUCIFERASE INFECTION ASSAY - IC50): 4.39 µM
IC90: > 10 µM

O=C(NCCO)c1cccc(-c2ccc3ncc(-c4cccc(O)c4)n3n2)c1
IC50 (HEPG2TOX_HILL_SLOPE 14.1, HEPG2TOX_R_SQUARED 0.658, PBLUC_HILL_SLOPE 25.2, PBLUC_R_SQUARED 0.24, read-out: LUCIFERASE INFECTION ASSAY - IC50): 8.83 µM
IC90: 9.64 µM

CC(C)(C)NC(=O)c1csc(C(O)c2cccc(C(F)(F)F)c2)n1 (configuration not stated)
IC50 (HEPG2TOX_HILL_SLOPE 14.6, HEPG2TOX_R_SQUARED 0.662, PBLUC_HILL_SLOPE 2.89, PBLUC_R_SQUARED 0.602, read-out: LUCIFERASE INFECTION ASSAY - IC50): 4.91 µM
IC90: > 10 µM

O=[N+]([O-])c1ccc(NC2C=CS(=O)(=O)C2)c(Cl)c1 (configuration not stated)
IC50 (HEPG2TOX_HILL_SLOPE 13.7, HEPG2TOX_R_SQUARED 0.786, read-out: LUCIFERASE INFECTION ASSAY - IC50): > 10 µM
IC90: > 10 µM

O=C(Nc1nc(-c2ccc3c(c2)CCC3)cs1)c1ccc(CSc2nnc[nH]2)cc1
IC50 (HEPG2TOX_HILL_SLOPE 14.2, HEPG2TOX_R_SQUARED 0.936, PBLUC_HILL_SLOPE 3.67, PBLUC_R_SQUARED 0.0328, read-out: LUCIFERASE INFECTION ASSAY - IC50): 6.58 µM
IC90: > 10 µM

Cc1cccc(C)c1-n1nnnc1Sc1nc(CN2CCOCC2)nc2sc(C)c(C)c12
IC50 (HEPG2TOX_HILL_SLOPE 14.5, 28.4, HEPG2TOX_R_SQUARED 0.890, 0.649, PBLUC_HILL_SLOPE 85.3, 7.09, PBLUC_R_SQUARED 0.147, 0.386, read-out: LUCIFERASE INFECTION ASSAY - IC50): 8.67 µM
IC90: > 10 µM

CCN(CCO)c1ccc(Nc2cc(C(=O)Nc3ccccc3)ncn2)cc1
IC50 (HEPG2TOX_HILL_SLOPE 13.5, HEPG2TOX_R_SQUARED 0.28, PBLUC_HILL_SLOPE 1.45, PBLUC_R_SQUARED 0.807, read-out: LUCIFERASE INFECTION ASSAY - IC50): 1.74 µM
IC90: 7.92 µM

CCCNC(=O)c1c(NC(=O)c2ccc(CC)cc2)nc2ccc(C)cn12
IC50 (HEPG2TOX_HILL_SLOPE 14.6, HEPG2TOX_R_SQUARED 0.266, PBLUC_HILL_SLOPE 22.2, PBLUC_R_SQUARED 0.534, read-out: LUCIFERASE INFECTION ASSAY - IC50): 2.92 µM
IC90: 3.22 µM

O=C(NNC(=O)c1cnc2ccccn2c1=O)c1cc(Cl)ccc1O
IC50 (HEPG2TOX_HILL_SLOPE 14.4, HEPG2TOX_R_SQUARED 0.595, PBLUC_HILL_SLOPE 11.5, PBLUC_R_SQUARED 0.377, read-out: LUCIFERASE INFECTION ASSAY - IC50): 3.51 µM
IC90: 4.25 µM

CCOC(=O)c1c(NC(=O)Cn2ncc(Cl)c(Cl)c2=O)sc(C(=O)NC)c1C
IC50 (HEPG2TOX_HILL_SLOPE 14.3, HEPG2TOX_R_SQUARED 0.883, PBLUC_HILL_SLOPE 2.04, PBLUC_R_SQUARED 0.801, read-out: LUCIFERASE INFECTION ASSAY - IC50): 2.11 µM
IC90: 6.18 µM

COc1ccc(-c2noc(CN3CCN(C(=O)c4nn(-c5cccc(Cl)c5)nc4C)CC3)n2)cc1
IC50 (HEPG2TOX_HILL_SLOPE 14.4, HEPG2TOX_R_SQUARED 0.481, PBLUC_HILL_SLOPE 15.9, PBLUC_R_SQUARED 0.0941, read-out: LUCIFERASE INFECTION ASSAY - IC50): 9.11 µM
IC90: > 10 µM

COc1ccc(/C=C(/C(=O)Nc2ccc(C)c(C)c2)c2nc3ccccc3s2)cc1
IC50 (HEPG2TOX_HILL_SLOPE 13.8, HEPG2TOX_R_SQUARED 0.904, PBLUC_HILL_SLOPE 19.4, PBLUC_R_SQUARED 0.196, read-out: LUCIFERASE INFECTION ASSAY - IC50): 3.27 µM
IC90: 3.66 µM

CCc1ccc2nc(NC(=O)c3cnccn3)sc2c1
IC50 (HEPG2TOX_HILL_SLOPE 14.5, HEPG2TOX_R_SQUARED 0.913, PBLUC_HILL_SLOPE 21.7, PBLUC_R_SQUARED 0.176, read-out: LUCIFERASE INFECTION ASSAY - IC50): 8.73 µM
IC90: 9.66 µM

O=C(CN1CCN(c2ccc(C(F)(F)F)cn2)CC1)N1CCC(c2nc3ccccc3s2)CC1
IC50 (HEPG2TOX_HILL_SLOPE 13.7, HEPG2TOX_R_SQUARED 0.915, PBLUC_HILL_SLOPE 1.27, PBLUC_R_SQUARED 0.698, read-out: LUCIFERASE INFECTION ASSAY - IC50): 3.43 µM
IC90: > 10 µM

Fc1cccc(-c2cc3c(Nc4ccc5c(c4)OCCO5)nccc3[nH]2)c1
IC50 (HEPG2TOX_HILL_SLOPE 14.3, HEPG2TOX_R_SQUARED 0.604, PBLUC_HILL_SLOPE 1.45, PBLUC_R_SQUARED 0.727, read-out: LUCIFERASE INFECTION ASSAY - IC50): 1.59 µM
IC90: 7.25 µM

CN(C)C(=O)c1ccc(-c2ccnc3n[nH]c(-c4ccc(N(C)C)cc4)c23)cc1
IC50 (HEPG2TOX_HILL_SLOPE 14.4, HEPG2TOX_R_SQUARED 0.857, PBLUC_HILL_SLOPE 6.94, PBLUC_R_SQUARED 0.445, read-out: LUCIFERASE INFECTION ASSAY - IC50): 3.69 µM
IC90: 5.06 µM

Fc1cccc(-c2cc3c(Nc4ccccn4)nccc3[nH]2)c1
IC50 (HEPG2TOX_HILL_SLOPE 13.8, HEPG2TOX_R_SQUARED 0.872, PBLUC_HILL_SLOPE 30.4, PBLUC_R_SQUARED 0.0497, read-out: LUCIFERASE INFECTION ASSAY - IC50): 8.5 µM
IC90: 9.13 µM

COc1cccc(CNC(=O)Nc2ccc3nc(Cc4ccccc4)nn3c2)c1
IC50 (HEPG2TOX_HILL_SLOPE 13.6, HEPG2TOX_R_SQUARED 0.936, PBLUC_HILL_SLOPE 1.17, PBLUC_R_SQUARED 0.525, read-out: LUCIFERASE INFECTION ASSAY - IC50): 2.14 µM
IC90: > 10 µM

CCN(c1ccc(NC(=O)c2ccc3c(c2)NC(=O)CS3)cc1)C(C)C
IC50 (HEPG2TOX_HILL_SLOPE 14.6, HEPG2TOX_R_SQUARED 0.71, PBLUC_HILL_SLOPE 18.6, PBLUC_R_SQUARED 0.967, read-out: LUCIFERASE INFECTION ASSAY - IC50): 3.27 µM
IC90: 3.68 µM

Oc1ccc(/C=C/c2ccc3cccc(O)c3n2)cc1
IC50 (HEPG2TOX_HILL_SLOPE 13.8, HEPG2TOX_R_SQUARED 0.969, PBLUC_HILL_SLOPE 21.8, PBLUC_R_SQUARED 0.339, read-out: LUCIFERASE INFECTION ASSAY - IC50): 4.58 µM
IC90: 5.07 µM

CN1CCN(c2ccc(CNc3ccc4ncc(-c5ccc(OC(F)(F)F)cc5)n4n3)cc2)CC1
IC50 (HEPG2TOX_HILL_SLOPE 14.3, HEPG2TOX_R_SQUARED 0.469, PBLUC_HILL_SLOPE 4.14, PBLUC_R_SQUARED 0.775, read-out: LUCIFERASE INFECTION ASSAY - IC50): 3.6 µM
IC90: 6.12 µM
